# From PubChem BioAssay AID1963835 (Molecular Pharmacology Branch, DTP, NCI, 2024)
# Tested on: 699152-130-R-J1-PDC complex spheroid viability
# Test: Anticancer human tumor 699152-130-R-J1-PDC patient-derived pancreatic carcinoma cell line growth inhibition [POLQ]
# Conditions: for IC50: curve of first compound; for viability, T/C: stronger effect = lower value
# Summary of the method: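 PDC + HUVEC + MSC complex spheroids; POLQ inhibitors ± partner drugs; top conc. at/near clinical Cmax, else 10 microM (SN-38 1 microM), half-log dilutions; 37 degrees C, 5% CO2.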
# [1] = second compound 0.0316 µM, first compound 0.0316 µM
# [2] = second compound 0.0316 µM, first compound 0.1 µM
# [3] = second compound 0.0316 µM, first compound 0.316 µM
# [4] = second compound 0.0316 µM, first compound 1 µM
# [5] = second compound 0.0316 µM, first compound 3.16 µM
# [6] = second compound 0.0316 µM, first compound 10 µM
# [7] = second compound 0.1 µM, first compound 0.0316 µM
# [8] = second compound 0.1 µM, first compound 0.1 µM
# [9] = second compound 0.1 µM, first compound 0.316 µM
# [10] = second compound 0.1 µM, first compound 1 µM
# [11] = second compound 0.1 µM, first compound 3.16 µM
# [12] = second compound 0.1 µM, first compound 10 µM
# [13] = second compound 0.316 µM, first compound 0.0316 µM
# [14] = second compound 0.316 µM, first compound 0.1 µM
# [15] = second compound 0.316 µM, first compound 0.316 µM
# [16] = second compound 0.316 µM, first compound 1 µM
# [17] = second compound 0.316 µM, first compound 3.16 µM
# [18] = second compound 0.316 µM, first compound 10 µM
# [19] = second compound 1 µM, first compound 0.0316 µM
# [20] = second compound 1 µM, first compound 0.1 µM
# [21] = second compound 1 µM, first compound 0.316 µM
# [22] = second compound 1 µM, first compound 1 µM
# [23] = second compound 1 µM, first compound 3.16 µM
# [24] = second compound 1 µM, first compound 10 µM
# [25] = second compound 3.16 µM, first compound 0.0316 µM
# [26] = second compound 3.16 µM, first compound 0.1 µM
# [27] = second compound 3.16 µM, first compound 0.316 µM
# [28] = second compound 3.16 µM, first compound 1 µM
# [29] = second compound 3.16 µM, first compound 3.16 µM
# [30] = second compound 3.16 µM, first compound 10 µM
# [31] = second compound 10 µM, first compound 0.0316 µM
# [32] = second compound 10 µM, first compound 0.1 µM
# [33] = second compound 10 µM, first compound 0.316 µM
# [34] = second compound 10 µM, first compound 1 µM
# [35] = second compound 10 µM, first compound 3.16 µM
# [36] = second compound 10 µM, first compound 10 µM
# 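Further: spheroids exposed to agents for 7 days before viability reading.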
# 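Wherever viability, T/C is given: percent of DMSO vehicle control viability so 100% = vehicle and 0% = no viable signal.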
compound,measurement,setting,value
CCc1cc2c(N3CCc4c(cc(Cn5ccnc5)cc4-c4cn(C)nc4C(F)(F)F)C3=O)cc(C)nc2c(OC)n1 + COC1C(OC(N)=O)C(O)C(Oc2ccc3c(O)c(NC(=O)c4ccc(O)c(CC=C(C)C)c4)c(=O)oc3c2C)OC1(C)C,IC50,second compound 0.0316 µM,> 10 µM
same,IC50,second compound 0.1 µM,> 10 µM
same,IC50,second compound 0.316 µM,> 10 µM
same,IC50,second compound 1 µM,> 10 µM
same,IC50,second compound 3.16 µM,> 10 µM
same,IC50,second compound 10 µM,> 10 µM
same,"viability, T/C",[1],91%
same,"viability, T/C",[2],91.9%
same,"viability, T/C",[3],89.5%
same,"viability, T/C",[4],93.2%
same,"viability, T/C",[5],101%
same,"viability, T/C",[6],100%
same,"viability, T/C",[7],93.9%
same,"viability, T/C",[8],91.4%
same,"viability, T/C",[9],91.7%
same,"viability, T/C",[10],101%
same,"viability, T/C",[11],96.9%
same,"viability, T/C",[12],99.5%
same,"viability, T/C",[13],94.5%
same,"viability, T/C",[14],91.4%
same,"viability, T/C",[15],89.8%
same,"viability, T/C",[16],96.1%
same,"viability, T/C",[17],99%
same,"viability, T/C",[18],106%
same,"viability, T/C",[19],98.8%
same,"viability, T/C",[20],83.5%
same,"viability, T/C",[21],97.2%
same,"viability, T/C",[22],96%
same,"viability, T/C",[23],94.2%
same,"viability, T/C",[24],99.8%
same,"viability, T/C",[25],92.4%
same,"viability, T/C",[26],86.8%
same,"viability, T/C",[27],84.2%
same,"viability, T/C",[28],98.5%
same,"viability, T/C",[29],95%
same,"viability, T/C",[30],102%
same,"viability, T/C",[31],93.2%
same,"viability, T/C",[32],102%
same,"viability, T/C",[33],88.5%
same,"viability, T/C",[34],100%
same,"viability, T/C",[35],105%
same,"viability, T/C",[36],106%
C=CCn1c(=O)c2cnc(Nc3ccc(N4CCN(C)CC4)cc3)nc2n1-c1cccc(C(C)(C)O)n1 + Nc1ccc(C#CCN(C(=O)Cc2ncc(C(F)(F)F)cc2C(F)(F)F)c2ccc(F)cc2)nn1,IC50,second compound 0.0316 µM,> 1 µM
same,IC50,second compound 0.1 µM,> 1 µM
same,IC50,second compound 0.316 µM,> 1 µM
same,IC50,second compound 1 µM,> 1 µM
same,IC50,second compound 3.16 µM,> 1 µM
same,IC50,second compound 10 µM,> 1 µM
same,"viability, T/C","second compound 0.0316 µM, first compound 0.00316 µM",94.2%
same,"viability, T/C","second compound 0.0316 µM, first compound 0.01 µM",100%
same,"viability, T/C",[1],103%
same,"viability, T/C",[2],93.2%
same,"viability, T/C",[3],96.1%
same,"viability, T/C",[4],78.2%
same,"viability, T/C","second compound 0.1 µM, first compound 0.00316 µM",105%
same,"viability, T/C","second compound 0.1 µM, first compound 0.01 µM",98%
same,"viability, T/C",[7],98.1%
same,"viability, T/C",[8],99.1%
same,"viability, T/C",[9],89%
same,"viability, T/C",[10],68.8%
same,"viability, T/C","second compound 0.316 µM, first compound 0.00316 µM",104%
same,"viability, T/C","second compound 0.316 µM, first compound 0.01 µM",113%
same,"viability, T/C",[13],108%
same,"viability, T/C",[14],106%
same,"viability, T/C",[15],91%
same,"viability, T/C",[16],71.9%
same,"viability, T/C","second compound 1 µM, first compound 0.00316 µM",97.9%
same,"viability, T/C","second compound 1 µM, first compound 0.01 µM",94.7%
same,"viability, T/C",[19],98.5%
same,"viability, T/C",[20],105%
same,"viability, T/C",[21],87.3%
same,"viability, T/C",[22],74.7%
same,"viability, T/C","second compound 3.16 µM, first compound 0.00316 µM",107%
same,"viability, T/C","second compound 3.16 µM, first compound 0.01 µM",115%
same,"viability, T/C",[25],100%
same,"viability, T/C",[26],112%
same,"viability, T/C",[27],101%
same,"viability, T/C",[28],82.8%
same,"viability, T/C","second compound 10 µM, first compound 0.00316 µM",122%
same,"viability, T/C","second compound 10 µM, first compound 0.01 µM",126%
same,"viability, T/C",[31],109%
same,"viability, T/C",[32],104%
same,"viability, T/C",[33],104%
same,"viability, T/C",[34],81.7%
C=CC(=O)N1CCN(c2nc(=O)n(-c3c(C)ccnc3C(C)C)c3nc(-c4c(O)cccc4F)c(F)cc23)C(C)C1 (stereo not drawn) + Cc1cccc(N(C)C(=O)C2C(O)CCN2c2nc(C)cc(C(F)(F)F)c2C#N)c1,IC50,second compound 0.0316 µM,> 10 µM
same,IC50,second compound 0.1 µM,> 10 µM
same,IC50,second compound 0.316 µM,> 10 µM
same,IC50,second compound 1 µM,> 10 µM
same,IC50,second compound 3.16 µM,> 10 µM
same,IC50,second compound 10 µM,> 10 µM
same,"viability, T/C",[1],92.9%
same,"viability, T/C",[2],99.6%
same,"viability, T/C",[3],102%
same,"viability, T/C",[4],110%
same,"viability, T/C",[5],113%
same,"viability, T/C",[6],115%
same,"viability, T/C",[7],102%
same,"viability, T/C",[8],89.4%
same,"viability, T/C",[9],113%
same,"viability, T/C",[10],93.8%
same,"viability, T/C",[11],119%
same,"viability, T/C",[12],105%
same,"viability, T/C",[13],99.9%
same,"viability, T/C",[14],103%
same,"viability, T/C",[15],103%
same,"viability, T/C",[16],103%
same,"viability, T/C",[17],114%
same,"viability, T/C",[18],110%
same,"viability, T/C",[19],108%
same,"viability, T/C",[20],89.7%
same,"viability, T/C",[21],102%
same,"viability, T/C",[22],113%
same,"viability, T/C",[23],108%
same,"viability, T/C",[24],109%
same,"viability, T/C",[25],92.2%
same,"viability, T/C",[26],91.3%
same,"viability, T/C",[27],98.8%
same,"viability, T/C",[28],105%
same,"viability, T/C",[29],114%
same,"viability, T/C",[30],104%
same,"viability, T/C",[31],103%
same,"viability, T/C",[32],104%
same,"viability, T/C",[33],108%
same,"viability, T/C",[34],109%
same,"viability, T/C",[35],120%
same,"viability, T/C",[36],119%
CC1COCCN1c1cc(C2(O)CC3CCC(C2)O3)c2cnn(-c3ccn[nH]3)c2n1 (stereo not drawn) + Nc1ccc(C#CCN(C(=O)Cc2ncc(C(F)(F)F)cc2C(F)(F)F)c2ccc(F)cc2)nn1,IC50,second compound 0.0316 µM,1.49 µM
same,IC50,second compound 0.1 µM,2.7 µM
same,IC50,second compound 0.316 µM,1.5 µM
same,IC50,second compound 1 µM,1.38 µM
same,IC50,second compound 3.16 µM,1.52 µM
same,IC50,second compound 10 µM,2.21 µM
same,"viability, T/C",[1],85.6%
same,"viability, T/C",[2],81.3%
same,"viability, T/C",[3],60.7%
same,"viability, T/C",[4],56.8%
same,"viability, T/C",[5],42.5%
same,"viability, T/C",[6],35.1%
same,"viability, T/C",[7],86.6%
same,"viability, T/C",[8],79.1%
same,"viability, T/C",[9],68.1%
same,"viability, T/C",[10],61.3%
same,"viability, T/C",[11],48.6%
same,"viability, T/C",[12],36.2%
same,"viability, T/C",[13],94.9%
same,"viability, T/C",[14],85.7%
same,"viability, T/C",[15],66.8%
same,"viability, T/C",[16],53.6%
same,"viability, T/C",[17],44.8%
same,"viability, T/C",[18],35.9%
same,"viability, T/C",[19],104%
same,"viability, T/C",[20],83.5%
same,"viability, T/C",[21],67.2%
same,"viability, T/C",[22],53.2%
same,"viability, T/C",[23],42.5%
same,"viability, T/C",[24],30.6%
same,"viability, T/C",[25],100%
same,"viability, T/C",[26],84.6%
same,"viability, T/C",[27],65.5%
same,"viability, T/C",[28],51%
same,"viability, T/C",[29],48.9%
same,"viability, T/C",[30],40.3%
same,"viability, T/C",[31],104%
same,"viability, T/C",[32],90.9%
same,"viability, T/C",[33],65.2%
same,"viability, T/C",[34],56.8%
same,"viability, T/C",[35],51.5%
same,"viability, T/C",[36],37.1%
